The results in this text go back to a melting point compilation (Tetko et al.).

By melting point is commonly meant the temperature, or range, at which the solid turns liquid.

Take `Nc1cc(F)ccc1N1CC(C(F)(F)F)OC1=O` (centres undefined): the melting point was 119 to 121 °C. The figure for `CSCc1nc(N)ccc1Cl` is 70 to 72 °C. The figure for `O=C(O)C=Cc1cc(Cl)ccc1OCc1ccccc1Cl` is 195 to 197 °C; for `CC1CC(=O)c2cccc(Br)c21` (centres undefined) it is 45 to 47 °C; for `COc1cc(Br)ccc1C(=O)O` it is 154 to 156 °C. In the case of `Cc1ccc(-n2[nH]c(C(=O)O)c(CCO)c2=O)cc1` it was 199 to 201 °C; in that of `COc1ccc(Br)cc1NCc1ccncc1`, 89 to 91 °C; in that of `O=C(O)C(Oc1ccc(F)cc1Br)c1ccccc1` (centres undefined), 133 to 135 °C. Take `O=C(O)Cc1csc(-c2ccc(F)c(F)c2)n1`: the melting point was 202 to 204 °C. In the case of `NC(=NO)c1ccsc1` it was 66 to 68 °C. In the case of `Cc1[nH]c(C(=O)O)c(C)c1C` it was 80 to 82 °C; in that of `CC(C)[C@H](NC(=O)c1c(F)cccc1F)C(=O)O`, 172 to 174 °C; in that of `NC(=NO)c1cccnc1Oc1ccccc1`, 152 to 154 °C.

On to `O=C(O)CCNS(=O)(=O)c1ccccc1C(F)(F)F`, for which the melting point lay in the range of 142 to 144 °C. In the case of `CS(=O)(=O)Nc1ccccc1C#N` it was 99 to 101 °C; in that of `Cc1cc(N)nc(N2CCOCC2)n1`, 102 to 104 °C; in that of `CC1(C)CCc2c(sc(N)c2C(N)=O)C1`, 144 to 146 °C.

In turn, `CCN(CC)c1ccc(-c2nnc(S)n2-c2ccccc2C)cc1` showed a melting point of 232 to 234 °C. In the case of `O=C(Nc1ccc(S(=O)(=O)Cl)cc1[N+](=O)[O-])C(F)(F)F` it was 91 to 93 °C.

In turn, `CCOCCCNC(N)=S` returned a melting point of 84 to 86 °C. The figure for `CCOC(=O)c1c(C)[nH]c(C(C)=O)c1C` is 115 to 117 °C; for `CCOC(=O)c1c[nH]c2cc(OC)cc(OC)c2c1=O` it is 257 to 259 °C; for `N#Cc1ccc(SCCC(=O)O)cc1` it is 86 to 88 °C. The figure for `O=C(O)c1ccccc1C(=O)c1cccs1` is 141 to 143 °C. The figure for `Cc1cc(/C=C/C(=O)O)c(C)n1-c1ccc2c(c1)OCO2` is 194 to 196 °C. Molecule `Brc1c[nH]c2nc(C3CCCO3)nc-2c1` (centres undefined) gave a melting point of 219 to 221 °C. For `COc1ccccc1C(C)(C)C(=O)O`, the melting point fell in the range of 121 to 123 °C. In the case of `O=C(O)c1cc(S(=O)(=O)N2CCOCC2)ccc1I` it was 183 to 185 °C; in that of `Cc1nn(Cc2ccccc2)c(C)c1C=NO`, 135 to 137 °C; in that of `CC(Cl)C(=O)NC(=O)Nc1ccccc1F` (centres undefined), 135 to 137 °C. The figure for `COC(=O)c1cc(C(=O)O)ccn1` is 233 to 235 °C; for `Nc1nc(Cc2ccc(Cl)cc2Cl)cs1` it is 96 to 98 °C; for `N=C(N)Nc1nc2ccccc2o1` it is 179 to 181 °C. The figure for `CC(=O)c1ccc(Cl)c(S(=O)(=O)Cl)c1` is 111 to 113 °C; for `Nc1ccccc1Sc1nncs1` it is 109 to 111 °C.

With `O=C(O)c1ccnc(OC2CCC2)c1`, the melting point was in the range of 153 to 155 °C.

The molecule `CN(CC(=O)O)C(=O)C1CC1` displayed a melting point of 112 to 114 °C. In the case of `COc1ccc(-n2c(C)c(C)c3c(N)ncnc32)cc1` it was 231 to 233 °C. `CC(C)(C)OC(=O)N1CC(CC(=O)O)C1` showed a melting point of 109 to 111 °C. In the case of `Cc1c(F)cc(C#N)cc1[N+](=O)[O-]` it was 75 to 77 °C; in that of `N#CCc1ccc(C(=O)O)cc1`, 189 to 191 °C. The figure for `CC(=O)c1ccc(N2CCCC2=O)cc1` is 127 to 131 °C; for `Clc1cnc2nc(Cl)oc2c1` it is 68 to 70 °C; for `CC(C(=O)O)S(C)(=O)=O` (centres undefined) it is 86 to 88 °C. The figure for `COc1ccc(C(=O)O)cc1S(=O)(=O)NC1CCCCC1C` (centres undefined) is 201 to 203 °C; for `N#CCCNS(=O)(=O)c1ccc(C(=O)O)cc1` it is 240 to 242 °C. As for `NCc1cccc(NS(=O)(=O)c2ccc(Cl)cc2)c1`, the melting point was in the range of 186 to 188 °C. In the case of `C=CC(=O)Nc1cccc(Br)c1` it was 122 to 124 °C; in that of `COc1nc(Cl)ncc1Br`, 76 to 78 °C; in that of `N#Cc1ccc(Oc2ccc(Cl)cc2)c(F)c1`, 67 to 69 °C. Molecule `O=C(O)c1cccc(S(=O)(=O)N2CCc3ccccc3C2)c1` registered a melting point of 55 to 58 °C. In the case of `CCOC(=O)N1CCNC(=O)CC1` it was 103 to 105 °C; in that of `CCCn1c(S)nc2cc(S(N)(=O)=O)ccc21`, 190 to 194 °C; in that of `Cn1cccc(N)c1=O`, 112 to 114 °C. The figure for `O=C(CCl)Nc1nc2c(s1)CCCC2` is 144 to 146 °C.

`N#Cc1ccccc1-c1ccccc1C(=O)O`: the melting point is 168 to 170 °C. `O=[N+]([O-])c1cc(S(=O)(=O)N2CCCCC2)ccc1Cl` displayed a melting point of 61 to 63 °C. In the case of `CCc1ccc(N)cc1S(N)(=O)=O` it was 136 to 138 °C; in that of `CS(=O)(=O)Nc1ccc(CCl)cc1`, 107 to 109 °C. The figure for `c1ccc(C2COCCN2)cc1` (centres undefined) is 74 to 76 °C; for `Clc1nc(-c2cccnc2)nc2sc3c(c12)CCCC3` it is 137 to 139 °C; for `CCSc1ccc(C(=O)O)cn1` it is 123 to 125 °C. The figure for `CCN(CC)C(=O)COc1ccc(C(C)=O)cc1` is 61 to 63 °C; for `O=C(O)C(Oc1ccc(F)cc1Cl)c1ccccc1` (centres undefined) it is 134 to 136 °C.

With `COC(=O)Cn1cnc2c(N)ncnc21`, the melting point lay in the range of 228 to 230 °C.

In turn, `Cc1nc(CC(=O)NN)cs1` returned a melting point of 114 to 116 °C. The figure for `O=Cc1cccc(OC(C(=O)O)c2ccccc2)c1` (centres undefined) is 98 to 100 °C; for `O=c1[nH]c(-c2ccc3c(c2)OCCO3)cs1` it is 229 to 231 °C. The figure for `Cc1nn(C2CCCCC2)c(C)c1N` is 69 to 71 °C; for `CC(=O)c1ccc(S(=O)(=O)NC(CC(N)=O)C(=O)O)cc1` (centres undefined) it is 180 to 182 °C; for `O=C(O)c1ccc(Oc2ccccc2Cl)cc1` it is 144 to 146 °C. In the case of `CS(=O)(=O)c1ccc(C#N)cc1N`, the melting point is 150 to 152 °C. The figure for `Cc1ccc(C(=O)Nc2ccc(O)cc2)cc1` is 208 to 210 °C; for `Nc1nc(-c2ccccc2)cn1/N=C/c1ccccc1` it is 202 to 204 °C. `COc1cc(OC)c2ncc(C(=O)O)c(O)c2c1` returned a melting point of 299 to 301 °C.

With `Cc1ccc(-c2ccc(C=O)o2)cc1`, the melting point lay in the range of 53 to 55 °C. In the case of `O=C(Nc1cnccn1)C1CCNCC1` it was 131 to 133 °C.

Take `O=c1oc2ccccc2c(Cl)c1[N+](=O)[O-]`: the melting point was in the range of 160 to 162 °C. The figure for `O=C(O)C1CCc2ccccc21` (centres undefined) is 54 to 56 °C.

`O=C1CCCc2c1[nH]c1ccccc21` returned a melting point of 169 to 171 °C. As for `COCC1(O)CCNCC1`, the melting point fell in the range of 54 to 56 °C.

On to `N#Cc1c(NC(=O)CCl)oc(-c2ccccc2)c1-c1ccccc1`, for which the melting point was 155 to 157 °C. In the case of `COCCOc1ccc(C(C)=O)cc1` it was 38 to 40 °C; in that of `O=S(=O)(c1ccc(S)nc1)N1CCCCC1`, 218 to 221 °C. In turn, `COc1ccccc1-c1nnc(N)[nH]1` returned a melting point of 214 to 216 °C. `CCOC(=O)CN(C)c1ccncc1[N+](=O)[O-]` came in with a melting point of 82 to 84 °C. In the case of `O=C(O)c1cc(=O)n(-c2ccc([N+](=O)[O-])cc2)[nH]1` it was 225 to 227 °C; in that of `O=C(c1ccc(O)cc1)c1ccc(F)cc1`, 170 to 172 °C. The figure for `c1ccc(CNc2nc3ccccc3[nH]2)cc1` is 147 to 149 °C. With `COc1cc(NC(=O)c2ccco2)c(C(=O)O)cc1OC`, the melting point fell in the range of 88 to 90 °C. In the case of `CN1CCCC(N(C)C(=O)c2ccc(N)cc2)C1` (centres undefined), the melting point was 116 to 118 °C.

Molecule `O=C(O)c1cscn1` came in with a melting point of 195 to 197 °C. Consider `O=C(O)c1cnc(S)n1-c1ccccc1`, for which the melting point lay in the range of 245 to 247 °C. The figure for `NNC(=O)CCSc1ccc(F)cc1` is 98 to 100 °C. The figure for `O=C1CCCc2cc(Br)ccc2N1` is 119 to 121 °C. In the case of `C=CCNS(=O)(=O)c1ccccc1F` it was 100 to 102 °C; in that of `NS(=O)(=O)CCCC(F)(F)F`, 66 to 68 °C; in that of `CN(Cc1ccccc1)c1nc2ccccc2[nH]1`, 206 to 208 °C.

With `Cc1nc(-c2ccc(F)c(F)c2)sc1C(=O)O`, the melting point lay within 209 to 211 °C. The figure for `COCCn1c(C)c(C)c2cc(C(=O)O)ccc21` is 219 to 221 °C; for `CC1(C2CC2)NC(=O)N(CC(=O)O)C1=O` (centres undefined) it is 170 to 172 °C; for `O=C(CCCl)Nc1ccc(F)cc1` it is 109 to 111 °C. The figure for `CCCn1c(=O)[nH]c(=O)c2[nH]cnc21` is 288 to 290 °C; for `O=C(CCl)NC(c1ccccc1)c1ccc2[nH]c(C(F)(F)F)nc2c1` (centres undefined) it is 193 to 195 °C; for `NC(=O)c1cc(-c2ccccc2)sc1N` it is 200 to 210 °C. The figure for `Nc1cc(Cl)c(Cl)c(C(=O)O)c1` is 199 to 201 °C. Consider `O=C(O)c1ccc(S(=O)(=O)N2CCCc3ccccc32)cc1`, for which the melting point was 170 to 172 °C. The figure for `Cc1cnc(C#N)nc1` is 67 to 69 °C; for `CCCCn1c(=O)[nH]c(=O)c2c1nc(CO)n2CCC` it is 134 to 136 °C. The figure for `Cc1ccc(/C=C/c2cc(C(=O)O)c3cc(Br)ccc3n2)cc1` is 306 to 308 °C; for `CCC(C)C1NC(C(=O)O)CS1` (centres undefined) it is 177 to 179 °C. The molecule `CCN(CC)S(=O)(=O)c1cc(NC(=O)CCl)ccc1C` came in with a melting point of 70 to 72 °C. As to `Cc1oc(C(=O)O)cc1S(=O)(=O)N1CCCC1`, the melting point was 219 to 221 °C.

For `CC(OCc1ccccc1)C(=O)O` (centres undefined), the melting point was 51 to 53 °C.

`Cc1ccnn1-c1cccc(N)c1`: the melting point lay within 93 to 95 °C. For the molecule `Cc1occc1C(=O)NCC(=O)O`, the melting point was 143 to 145 °C.

In turn, `N#CC=Cc1ccc(C(F)(F)F)cc1` gave a melting point of 89 to 91 °C. In the case of `Cc1nnc(N2CCCC2)c(C(N)=O)c1C` it was 211 to 213 °C; in that of `O=C(CBr)c1ccc(S(=O)(=O)N2CCCCC2)cc1`, 108 to 110 °C.
